Source: patent US4058601A, “Method for treating alcoholism” (Chugai Seiyaku Kabushiki Kaisha, priority 1974, dated 1977)
“And” between values parts separate entries of the source, which are not always exact repeats. Equal values may be shown once. “Also recorded” adds a separate entry of the source.

Legend:
Neutral Lipid in Liver = assay: Inhibiting action for accumulation of neutral lipid in liver (ethanol-loaded rats); type: in vivo, Sprague Dawley strain male rats
Description: Inhibiting Action for Accumulation of Neutral Lipid in Liver
The Sprague Dawley strain male rats weighing 180±30 g which had been fed rat food commercially available as CLEA CE-2 and prevented from eating food for 16 hours just before the experiment was started were divided into groups of 10 rats each. Each rat was orally administered with disodium uridine-5'-diphosphate (UDP-2Na) as a suspension in corn oil in a dose of 100 mg/kg body weight. Thirty minutes after the administration, each rat was orally administered with ethanol as a 50% aqueous solution in a dose of 6 g/kg. body weight and, 24 hours after the administration, the liver was taken out and an amount of neutral lipid contained therein was determined by the Van Handel and Zilver-Smit method. For control, a glucose aqueous solution having a caloric content equivalent to the same amount of ethanol was used instead of ethanol.

[1] = tested on: rat (behaviour after ethanol); assay: Behaviour and righting reflex of rats, UDP-2Na given 30 min before ethanol (Example 2); type: in vivo, Sprague Dawley strain male rats; settings: UDP-2Na 100 mg/kg p.o. 30 min before ethanol 6 g/kg
Description: The Sprague Dawley strain male rats weighing 260±30 g which had been fed rat food commercially available as CLEA CE-2 and prevented from eating food for 12 hours just before the experiment were divided into groups each of 10 - 13 members each. Each rat was orally administered disodium uridine-5'-diphosphate (UDP-2Na) in the form of a suspension in corn oil in an amount 100 mg/kg body weight. Thirty minutes after the administration, ethanol as a 50% aqueous solution was orally administered in a dose of 6 g/kg. body weight and then behavior of the rat was observed over 24 hours.

[2] = Measurement of alcohol level in blood (alcoholic dehydrogenase method); type: in vivo, Sprague Dawley strain female rats
Description: Measurement of Alcohol Level in Blood
(§1) In this Example, Sprague Dawley strain female rats (weighing 150±20 g) divided into groups of 9 - 12 members each were used.
(§2) After abstention from food overnight each rat was orally administered disodium uridine-5'-diphosphate (UDP-2Na) in the form of a physiological saline solution in a dose of 100 mg/kg. body weight as an effective ingredient and, 30 minutes after the administration, the rat was administered with ethanol in a dose of 6 g/kg body weight. Four hours and thirty minutes after the administration of ethanol, the rat was etherized, and blood was sampled from its heart to determine alcohol level in the blood by a alcoholic dehydrogenase method. For control, a physiological saline solution was used instead of the UDP-2Na solution.

[3] = tested on: rat (behaviour after ethanol); assay: Behaviour and righting reflex of rats, UDP-2Na given 30 min after ethanol (Example 3); type: in vivo, Sprague Dawley strain male rats; settings: UDP-2Na 100 mg/kg p.o. 30 min after ethanol 6 g/kg
Description: The Sprague Dawley strain male rats weighing 160±30 g which were fed rat food commercially available as CLEA CE-2 and prevented from eating food for 12 hours just before the experiment was started. Each rat was administered with ethanol as a 50% aqueous solution in a dose of 6 g/kg body weight. Thirty minutes after the administration, the rat was orally administered with a suspension of disodium uridine-5'-diphosphate (UDP-2Na) in corn oil in a dose of 100 mg/kg. body weight based on UDP-2Na. The behavior of the rat was observed over 24 hours after the last administration.

[4] = tested on: rat (behavior after ethanol); assay: Behavior of rats in the blood alcohol experiment (Example 4); type: in vivo, Sprague Dawley strain female rats; settings: UDP-2Na 100 mg/kg p.o. 30 min before ethanol 6 g/kg; ditto mark (") = normal walking
Description: as §1, §2

## O=c1ccn([C@@H]2O[C@H](COP(=O)([O-])OP(=O)([O-])O)[C@@H](O)[C@H]2O)c(=O)[nH]1.[Na+].[Na+] [UDP . 2Na, disodium uridine-5'-diphosphate]
Neutral Lipid in Liver; UDP-2Na 100 mg/kg p.o. 30 min before ethanol 6 g/kg p.o., 24 h
  % inhibition (neutral lipid accumulation in liver): 95.7%
Neutral Lipid in Liver; UDP-2Na 100 mg/kg p.o. in corn oil 30 min before ethanol 6 g/kg p.o., liver taken 24 h after
  Neutral Lipid in Liver: 12.69 ± 7.85 mg/g
[1]; 3 hrs after alcohol
  Behaviour: Deep Sleep: 1 heads
  Behaviour: Lying Flat: 5 heads
  Behaviour: Normal Walking: 7 heads
  Righting Reflex +: 12 heads
  Righting Reflex -: 1 heads
[1]; 6 hrs after alcohol
  Behaviour: Deep Sleep: 1 heads
  Behaviour: Lying Flat: 8 heads
  Behaviour: Normal Walking: 4 heads
  Righting Reflex +: 12 heads
  Righting Reflex -: 1 heads
[1]; 9 hrs after alcohol
  Behaviour: Deep Sleep: 0 heads
  Behaviour: Lying Flat: 7 heads
  Behaviour: Normal Walking: 6 heads
  Righting Reflex +: 13 heads
  Righting Reflex -: 0 heads
[1]; 12 hrs after alcohol
  Behaviour: Deep Sleep: 0 heads
  Behaviour: Lying Flat: 0 heads
  Behaviour: Normal Walking: 13 heads
  Righting Reflex +: 13 heads
  Righting Reflex -: 0 heads
[1]; 18 hrs after alcohol
  Behaviour: Deep Sleep: 0 heads
  Behaviour: Lying Flat: 0 heads
  Behaviour: Normal Walking: 13 heads
  Righting Reflex +: 13 heads
  Righting Reflex -: 0 heads
[2]; UDP-2Na 100 mg/kg p.o. in saline 30 min before ethanol 6 g/kg, 4 h 30 min after ethanol, *Confidence Limits: 98%
  Ethanol level in Blood, Average: 1.51 ± 1.09 mg/mL
[2]; UDP-2Na 100 mg/kg p.o. in saline 30 min before ethanol 6 g/kg, blood 4 h 30 min after ethanol
  Ethanol level in Blood (individual test animals No. 1-12): 2.11 mg/mL and 1.77 mg/mL and 0.57 mg/mL and 0.24 mg/mL and 0.75 mg/mL and 2.10 mg/mL and 1.08 mg/mL and 1.35 mg/mL and 1.72 mg/mL and 1.50 mg/mL and 2.16 mg/mL and 2.74 mg/mL
[2]; UDP-2Na 100 mg/kg p.o., result in words
  alcohol level in blood in comparison with the control: significantly lowered
[3]; 3 hrs after alcohol
  Behaviour: Deep Sleep: 1 heads
  Behaviour: Lying Flat: 6 heads
  Behaviour: Normal Walking: 4 heads
  Righting Reflex +: 10 heads
  Righting Reflex -: 1 heads
[3]; 6 hrs after alcohol
  Behaviour: Deep Sleep: 1 heads
  Behaviour: Lying Flat: 7 heads
  Behaviour: Normal Walking: 3 heads
  Righting Reflex +: 9 heads
  Righting Reflex -: 2 heads
[3]; 9 hrs after alcohol
  Behaviour: Deep Sleep: 1 heads
  Behaviour: Lying Flat: 6 heads
  Behaviour: Normal Walking: 4 heads
  Righting Reflex +: 10 heads
  Righting Reflex -: 1 heads
[3]; 12 hrs after alcohol
  Behaviour: Deep Sleep: 0 heads
  Behaviour: Lying Flat: 1 heads
  Behaviour: Normal Walking: 10 heads
  Righting Reflex +: 11 heads
  Righting Reflex -: 0 heads
[3]; 18 hrs after alcohol
  Behaviour: Deep Sleep: 0 heads
  Behaviour: Lying Flat: 0 heads
  Behaviour: Normal Walking: 11 heads
  Righting Reflex +: 11 heads
  Righting Reflex -: 0 heads
[4]
  Behavior (individual test animals No. 1-12): normal walking; also recorded: lying flat; also recorded: deep sleep
